Experimental data as given in ChEMBL document CHEMBL3779770, “Synthesis, biological evaluation and molecular docking study of some novel indole and pyridine based 1,3,4-oxadiazole derivatives as potential antitubercular agents” (Bioorg Med Chem Lett, 2016).
Values after ≈ are worked out from the molar mass of the structure shown.

Experiments:
[1] = system: Mycobacterium tuberculosis variant bovis BCG; assay: Antitubercular activity against active state Mycobacterium bovis BCG ATCC 35734 assessed as viable cells after 8 days by nitrate reductase assay; format: functional, organism-based; conditions: ATCC 35734, 192 h
[2] = system: Mycobacterium tuberculosis variant bovis BCG; assay: Antitubercular activity against dormant state Mycobacterium bovis BCG ATCC 35734 assessed as viable cells after 12 days by nitrate reductase assay; format: functional, organism-based; conditions: ATCC 35734, 288 h

SMILES	IC50 [1] [µg/mL]	MIC [1] [µg/mL]	IC50 [2] [µg/mL]	MIC [2] [µg/mL]
O=C(/C=C\c1ccccc1[N+](=O)[O-])N1N=C(c2ccncc2)OC1c1c[nH]c2ccccc12 (stereo not drawn)	0.48 (≈ 1.09 µM)	1.03 (≈ 2.34 µM)	0.36 (≈ 0.819 µM)	0.85 (≈ 1.93 µM)
O=C(/C=C\c1ccc([N+](=O)[O-])cc1)N1N=C(c2ccncc2)OC1c1c[nH]c2ccccc12 (stereo not drawn)	1.42 (≈ 3.23 µM)	2.5 (≈ 5.69 µM)	1.37 (≈ 3.12 µM)	2.37 (≈ 5.39 µM)
O=C(/C=C\c1cccc(Cl)c1)N1N=C(c2ccncc2)OC1c1c[nH]c2ccccc12 (stereo not drawn)	> 30	> 30	> 30	> 30
NNC(=O)c1ccncc1 [ISONIAZID]	0.0012 (≈ 0.00875 µM)	0.033 (≈ 0.241 µM)	0.0017 (≈ 0.0124 µM)	0.037 (≈ 0.27 µM)
O=C(/C=C\c1ccc(O)cc1)N1N=C(c2ccncc2)OC1c1c[nH]c2ccccc12 (stereo not drawn)	28.8 (≈ 70.2 µM)	> 30	27.9 (≈ 68 µM)	> 30
O=C(/C=C\c1ccccc1Cl)N1N=C(c2ccncc2)OC1c1c[nH]c2ccccc12 (stereo not drawn)	> 30	> 30	> 30	> 30
O=C(/C=C\c1ccc(Cl)cc1)N1N=C(c2ccncc2)OC1c1c[nH]c2ccccc12 (stereo not drawn)	> 30	> 30	> 30	> 30
CO[C@H]1/C=C/O[C@@]2(C)Oc3c(C)c(O)c4c(O)c(c(/C=N/N5CCN(C)CC5)c(O)c4c3C2=O)NC(=O)/C(C)=C\C=C\[C@H](C)[C@H](O)[C@@H](C)[C@@H](O)[C@@H](C)[C@H](OC(C)=O)[C@@H]1C [RIFAMPIN]	0.0012 (≈ 0.00146 µM)	0.015 (≈ 0.0182 µM)	0.0015 (≈ 0.00182 µM)	0.017 (≈ 0.0207 µM)
O=C(/C=C\c1cccc(Br)c1)N1N=C(c2ccncc2)OC1c1c[nH]c2ccccc12 (stereo not drawn)	> 30	> 30	21.7 (≈ 45.9 µM)	> 30
COc1ccc(/C=C\C(=O)N2N=C(c3ccncc3)OC2c2c[nH]c3ccccc23)cc1 (stereo not drawn)	> 30	> 30	> 30	> 30
O=C(/C=C\c1ccccc1O)N1N=C(c2ccncc2)OC1c1c[nH]c2ccccc12 (stereo not drawn)	0.46 (≈ 1.12 µM)	0.94 (≈ 2.29 µM)	0.68 (≈ 1.66 µM)	1.19 (≈ 2.9 µM)
O=C(/C=C\c1cccc(Cl)c1Cl)N1N=C(c2ccncc2)OC1c1c[nH]c2ccccc12 (stereo not drawn)	> 30	> 30	> 30	> 30
O=C(/C=C\c1cccc([N+](=O)[O-])c1)N1N=C(c2ccncc2)OC1c1c[nH]c2ccccc12 (stereo not drawn)	> 30	> 30	> 30	> 30
O=C(/C=C\c1ccc(Cl)cc1Cl)N1N=C(c2ccncc2)OC1c1c[nH]c2ccccc12 (stereo not drawn)	2.93 (≈ 6.32 µM)	5.17 (≈ 11.2 µM)	1.5 (≈ 3.24 µM)	4.97 (≈ 10.7 µM)
O=C(/C=C\c1cccc(F)c1)N1N=C(c2ccncc2)OC1c1c[nH]c2ccccc12 (stereo not drawn)	19.5 (≈ 47.4 µM)	> 30	20.4 (≈ 49.5 µM)	> 30
O=C(/C=C\c1cccc(O)c1)N1N=C(c2ccncc2)OC1c1c[nH]c2ccccc12 (stereo not drawn)	> 30	> 30	> 30	> 30
O=C(/C=C\c1ccc(F)cc1)N1N=C(c2ccncc2)OC1c1c[nH]c2ccccc12 (stereo not drawn)	> 30	> 30	> 30	> 30
O=C(/C=C/c1c(Cl)cccc1Cl)N1N=C(c2ccncc2)OC1c1c[nH]c2ccccc12 (stereo not drawn)	> 30	> 30	19.2 (≈ 41.5 µM)	> 30
O=C(/C=C\c1ccc(Br)cc1)N1N=C(c2ccncc2)OC1c1c[nH]c2ccccc12 (stereo not drawn)	> 30	> 30	> 30	> 30
O=C(/C=C\c1ccccc1)N1N=C(c2ccncc2)OC1c1c[nH]c2ccccc12 (stereo not drawn)	12.3 (≈ 31.3 µM)	> 30	11.2 (≈ 28.5 µM)	> 30
O=C(/C=C\c1ccccc1F)N1N=C(c2ccncc2)OC1c1c[nH]c2ccccc12 (stereo not drawn)	> 30	> 30	> 30	> 30
Cc1ccc(/C=C\C(=O)N2N=C(c3ccncc3)OC2c2c[nH]c3ccccc23)cc1 (stereo not drawn)	> 30	> 30	> 30	> 30
